We go through 22 compounds from US7576099B2, “Amide derivatives as ion-channel ligands and pharmaceutical compositions and methods of using the same” (Renovis, Inc., priority 2005, dated 2009).

The target of data set [1] is T1, VR1 (Homo sapiens, UniProt Q8NER1). Briefly: Acid stimulation assay (FDSS 6000, intracellular calcium). It is filed as cell-based. Further details: host or cells: only 'the cell suspension' is mentioned. Conditions: final assay buffer pH5.8, 15 minutes pre-incubation. As to the method: The Acid-induced changes in the intracellular calcium concentration were monitored using FDSS 6000 (Hamamatsu Photonics, Japan), a fluorometric imaging system. The cell suspension in resting buffer (HBSS supplemented with 10 mM HEPES, pH 7.4) was pre-incubated with varying concentrations of the test compounds or resting buffer (buffer control) for 15 minutes at room temperature under dark conditions. The cells were automatically added the stimulating solution (HBSS supplemented with MES, final assay buffer pH5.8) by the FDSS 6000.
Target sequence in this assay (Q8NER1 whole entry, species assumed): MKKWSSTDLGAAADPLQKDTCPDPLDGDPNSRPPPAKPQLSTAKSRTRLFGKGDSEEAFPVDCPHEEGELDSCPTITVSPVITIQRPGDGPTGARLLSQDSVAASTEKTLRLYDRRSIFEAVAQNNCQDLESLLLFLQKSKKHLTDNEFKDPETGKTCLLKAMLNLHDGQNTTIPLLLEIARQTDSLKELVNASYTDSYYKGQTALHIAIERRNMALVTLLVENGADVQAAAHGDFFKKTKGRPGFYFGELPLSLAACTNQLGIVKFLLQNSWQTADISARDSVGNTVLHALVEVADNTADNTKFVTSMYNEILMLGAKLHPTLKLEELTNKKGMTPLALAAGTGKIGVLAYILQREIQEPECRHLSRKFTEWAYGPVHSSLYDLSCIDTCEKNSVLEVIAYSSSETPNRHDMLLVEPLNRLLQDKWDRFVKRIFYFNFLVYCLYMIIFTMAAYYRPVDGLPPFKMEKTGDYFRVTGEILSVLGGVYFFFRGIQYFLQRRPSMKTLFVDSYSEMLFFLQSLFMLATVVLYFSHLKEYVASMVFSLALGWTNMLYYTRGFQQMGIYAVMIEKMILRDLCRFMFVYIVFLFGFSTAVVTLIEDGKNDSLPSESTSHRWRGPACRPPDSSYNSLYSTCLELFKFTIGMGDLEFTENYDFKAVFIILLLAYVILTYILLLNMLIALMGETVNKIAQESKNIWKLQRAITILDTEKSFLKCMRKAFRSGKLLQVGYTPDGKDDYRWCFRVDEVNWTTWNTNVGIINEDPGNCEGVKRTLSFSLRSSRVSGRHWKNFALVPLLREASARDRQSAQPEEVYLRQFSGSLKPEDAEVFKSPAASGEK
In general terms: Calcium assays in cells follow changes in intracellular calcium, usually with a dye or a luminescent sensor.

The target in data set [2] is T1, VR1. Kind of data set: Calcium uptake assay (Fura2, Flex Station) in HEK 293 cells expressing hVR1. It is filed as cell-based. Further details: expressed in transfected cells; host or cells: T-REx HEK 293 (Invitrogen), pcDNA5/TO vector, doxycycline induced. Conditions: for inhibition at 0.3 µM: HEK293, read-out: Low pH % Inhib. @ 0.3 μM; for inhibition of the Capsaicin induced intracellular calcium response (FIGS. 2-6): 3 nM compound, capsaicin as agonist, calcium uptake assay method.
Target sequence in this assay (Q8NER1 whole entry): as the sequence (Q8NER1 whole entry, species assumed) above

Data set [3] is described as follows: Half-life in human liver microsomes (HLM). It is filed as in vitro ADME. The following applies: human liver microsomes (HLM, HL101), pH 7.4, 1 μM compound, 0.78 mg/mL HLM, NADPH, 37° C. The procedure:
Test compounds (1 μM) were incubated with 3.3 mM MgCl2 and 0.78 mg/mL HLM (HL101) in 100 mM potassium phosphate buffer (pH 7.4) at 37° C. on the 96-deep well plate. The reaction mixture was split into two groups, a non-P450 and a P450 group. NADPH was only added to the reaction mixture of the P450 group. An aliquot of samples of P450 group was collected at 0, 10, 30, and 60 min time point, where 0 min time point indicated the time when NADPH was added into the reaction mixture of P450 group. An aliquot of samples of non-P450 group was collected at −10 and 65 min time point. Collected aliquots were extracted with acetonitrile solution containing an internal standard. The precipitated protein was spun down in centrifuge (2000 rpm, 15 min). The compound concentration in supernatant was measured by LC/MS/MS system.
The half-life value was obtained by plotting the natural logarithm of the peak area ratio of compounds/internal standard versus time. The slope of the line of best fit through the points yields the rate of metabolism (k). […]
Exemplary compounds of the invention were tested (1 μM), and were incubated with 3.3 mM MgCl2 and 0.78 mg/mL HLM (HL101) in 100 mM potassium phosphate buffer (pH 7.4) at 37° C. on the 96-deep well plate. […] The compound concentration in supernatant was measured by LC/MS/MS system. […]

For a further data set, the system named is VR1 receptor. Kind of data set: Calcium imaging assay in DRG neurons (Example 1). It is filed as cell-based. Conditions: 3 nM compound. The procedure: Therefore the functional activity of compounds at the VR1 receptor may be determined by measuring changes in intracellular calcium levels in neurons such as the dorsal root ganglion. […] Prior to assay, cells were loaded with 5 μg/ml Fura2 in normal saline solution at 37° C. for 40 minutes. Cells were then washed with normal saline to remove dye before commencement of the experiment. The plated neurons were transferred into a chamber on the stage of a Nikon eclipse TE300 microscope after which neurons were allowed to attain a stable fluorescence for about 10 minutes before beginning the experiment. The assay consists of two stages, a pretreatment phase followed by a treatment phase. First, a solution of the test compound was added from a multivalve perfusion system to the cells for 1 minute (pretreatment). […] Fura2 was excited at 340 and 380 nm to indicate relative calcium ion concentration. Changes in wavelength measurements were made throughout the course of the experiment. The fluorescence ratio was calculated by dividing fluorescence measured at 340 nm by that at 380 nm. Data were collected using Intelligent Imaging's Slidebook software.

Setting [4] is: 0.3 μM compound, low pH (protons) as agonist, HEK 293 cells expressing hVR1.

Structures are written as SMILES. Where only a bound is given, the exact number is not on record here.

One may read the IC50 as the concentration needed to halve the response being measured. Regarding `O=C(Nc1ccc2c(c1)OCC(CO)O2)c1ccc(/C=C/C(F)(F)F)cc1` (single isomer, unassigned) [Compound 108], at VR1 [1], the IC50 was 5 nM.
Consider `CC(C)(C)C#Cc1ccc(C(=O)Nc2cnc3ccccc3c2)cn1` [Compound 24], for which the inhibition at 0.3 µM at VR1 [2] (setting [4]) stood at 101%.
Turning to `O=C(Nc1cccc2cnccc12)c1ccc(C#CC(F)(F)F)cc1` [Compound 45], the “inhibition of the Capsaicin induced intracellular calcium response (FIGS. 2-6)” value on VR1 [2] is recorded as “significant inhibition”.
As for `O=C1COc2ccc(NC(=O)c3ccc(/C=C/C(F)(F)F)cc3)cc2N1` [Compound 57], at VR1 [2] (setting [4]), the inhibition at 0.3 µM stood at 58%.
On the same count and under the same terms, the figure for `CC1(C)Oc2ccc(NC(=O)c3ccc(/C=C/C(F)(F)F)cc3)cc2NC1=O` [Compound 58] is 19%; for `CN1CCC(C)(C)c2ccc(NC(=O)c3ccc(C#CC(C)(C)C)cc3)cc21` [Compound 59] it is 83%.
As a reminder, the half-life is the time needed for the level to fall by half in the phase considered. Low values mean rapid decline, high ones slow decline. In data set [3], `CC(C)(C)C#Cc1ccc(C(=O)Nc2cccc3cnccc23)cc1OCCN1CCOCC1` [Compound 60] had a half-life at 1 μM of 21 min. Besides, the inhibition at 0.3 µM on VR1 [2] (setting [4]) is 69%.
On to `O=C1COc2cc(NC(=O)c3ccc(/C=C/C(F)(F)F)cc3)ccc2N1` [Compound 61], for which, on VR1 [2] (setting [4]), the inhibition at 0.3 µM is 10%.
As to `O=C(Nc1ccc2c(c1)NCCO2)c1ccc(/C=C/C(F)(F)F)cc1` [Compound 62], the inhibition at 0.3 µM on VR1 [2] (setting [4]) came to 14%.
`O=C(Nc1ccc2c(c1)OCCN2)c1ccc(/C=C/C(F)(F)F)cc1` [Compound 63] had a half-life at 1 μM in data set [3] of 24 min. Moreover, the inhibition at 0.3 µM at VR1 [2] (setting [4]) worked out at 123%.
In the case of `CC1(C)CNc2cc(NC(=O)c3ccc(/C=C/C(F)(F)F)cc3)ccc2O1` [Compound 64], the inhibition at 0.3 µM on VR1 [2] (setting [4]) was 10%.
Turning to `O=C(Nc1ccc2c(c1)OCCN2)c1ccc(C#CC(F)(F)F)cc1` [Compound 70], the “Low pH % Inhib. @ 0.3 μM” value at VR1 [2] (setting [4]) was determined as 185%. In addition, the concentration for half-maximal inhibition (IC50) on VR1 [1] worked out at 5 nM.
On to `O=C(Oc1ccc2c(c1)OC(CO)CO2)c1ccc(C#CC2CC2)cc1` (stereo not drawn) [Compound 86], for which the inhibition at 0.3 µM on VR1 [2] (setting [4]) worked out at 83%.
Turning to `O=C(Oc1ccc2c(c1)OCC(CO)O2)c1ccc(C#CC2CC2)cc1` (stereo not drawn) [Compound 87], the inhibition at 0.3 µM on VR1 [2] (setting [4]) was found to be 98%.
With `C/C(=C\C(F)(F)F)c1ccc(C(=O)Nc2ccc3c(c2)OCCN3)cc1` [Compound 96], at VR1 [2], the “inhibition of the Capsaicin induced intracellular calcium response (FIGS. 2-6)” value was “significant inhibition”.
As for `Cc1cc2c(NC(=O)c3ccc(/C=C/C(F)(F)F)cc3)cccc2nn1` [Compound 113], the inhibition at 0.3 µM on VR1 [2] (setting [4]) was found to be 9%.
Take `Cc1cc(C#CC(C)(C)C)ccc1C(=O)Nc1ccc2c(c1)OCC(CO)N2` (stereo not drawn) [Compound 167]: the “inhibition of the Capsaicin induced intracellular calcium response (FIGS. 2-6)” value on VR1 [2] is given as “significant inhibition”.
For the compound `Cc1cc(/C=C/C(F)(F)F)ccc1C(=O)Nc1cnc2ccccc2c1` [Compound 187], the “inhibition of the Capsaicin induced intracellular calcium response (FIGS. 2-6)” value on VR1 [2] was “significant inhibition”.
`Cc1cc(/C=C/C(F)(F)F)ccc1C(=O)Nc1cnc2c(c1)OCC(O)CN2` (stereo not drawn) [Compound 189]: the inhibition at 0.3 µM at VR1 [2] (setting [4]) is 87%.
With `Cc1cc(/C=C/C(F)(F)F)ccc1C(=O)Nc1ccc2sc(CO)nc2c1` [Compound 225], the “inhibition of the Capsaicin induced intracellular calcium response (FIG. 1)” value with VR1 receptor is reported as “significant inhibition”; with VR1 receptor (listed as compound 225), “reduced”. The “% inhibition of capsaicin induced calcium influx” value in the data set with VR1 receptor (treatment time 20 sec, capsaicin 250 nM) was over 75%.
With `Cc1cc(/C=C/C(F)(F)F)ccc1C(=O)NC1=CC2CNCCC2N=C1` (stereo not drawn) [Compound 229], on VR1 [2] (setting [4]), the inhibition at 0.3 µM came to 54%.
For the compound `Cc1cc(/C=C/C(F)(F)F)ccc1C(=O)Nc1cnc2c(c1)OCC(CO)N2` (stereo not drawn) [Compound 233], the “inhibition of the Capsaicin induced intracellular calcium response (FIGS. 2-6)” value at VR1 [2] is “significant inhibition”.
